Data as given in ChEMBL document CHEMBL6127085, “Design, synthesis and evaluation of novel LpxC inhibitors containing a hydrazone moiety as Gram-negative antibacterial agents” (Eur J Med Chem, 2024).
Converted amounts (≈) assume the structure as drawn.

Key:
[1] = tested on: Klebsiella pneumoniae; assay: Antibacterial activity against Klebsiella pneumoniae clinical isolate KPN+22-1 assessed as reduction in bacterial growth measured after 18 to 24 hrs by CLSI protocol based method; type: functional; details: time 18-24 hrs
[2] = tested on: Klebsiella pneumoniae; assay: Antibacterial activity against Klebsiella pneumoniae ATCC700603 assessed as reduction in bacterial growth measured after 18 to 24 hrs by CLSI protocol based method; type: functional; details: time 18-24 hrs
[3] = tested on: Pseudomonas aeruginosa; assay: Antibacterial activity against Pseudomonas aeruginosa ATCC27853 assessed as reduction in bacterial growth measured after 18 to 24 hrs by CLSI protocol based method; type: functional; details: time 18-24 hrs
[4] = tested on: Pseudomonas aeruginosa; assay: Antibacterial activity against Pseudomonas aeruginosa clinical isolate PAE22-1 assessed as reduction in bacterial growth measured after 18 to 24 hrs by CLSI protocol based method; type: functional; details: time 18-24 hrs
[5] = tested on: Escherichia coli; assay: Antibacterial activity against Escherichia coli ATCC25922 assessed as reduction in bacterial growth measured after 18 to 24 hrs by CLSI protocol based method; type: functional; details: time 18-24 hrs
[6] = Metabolic stability in rat liver microsomes assessed as half life at 1 uM preincubated for 5 mins followed by NADPH addition and measured after 5 to 60 mins by LC-MS analysis; type: ADME, Microsome; details: liver microsomes, time 10-65 min
[7] = Intrinsic clearance in mouse; type: ADME, organism-based; details: read-out: CLH
[8] = Metabolic stability in mouse liver microsomes assessed as half life at 1 uM preincubated for 5 mins followed by NADPH addition and measured after 5 to 60 mins by LC-MS analysis; type: ADME, Microsome; details: liver microsomes, time 10-65 min
[9] = Metabolic stability in human liver microsomes assessed as intrinsic clearance at 1 uM preincubated for 5 mins followed by NADPH addition and measured after 5 to 60 mins by LC-MS analysis; type: ADME, Microsome; details: time 10-65 min, read-out: CLH
[10] = Metabolic stability in mouse liver microsomes assessed as intrinsic clearance at 1 uM preincubated for 5 mins followed by NADPH addition and measured after 5 to 60 mins by LC-MS analysis; type: ADME, Microsome; details: liver microsomes, time 10-65 min, read-out: CLH
[11] = Metabolic stability in rat liver microsomes assessed as intrinsic clearance at 1 uM preincubated for 5 mins followed by NADPH addition and measured after 5 to 60 mins by LC-MS analysis; type: ADME, Microsome; details: liver microsomes, time 10-65 min, read-out: CLH
[12] = Intrinsic clearance in rat; type: ADME; details: read-out: CLH
[13] = Metabolic stability in human liver microsomes assessed as half life at 1 uM preincubated for 5 mins followed by NADPH addition and measured after 5 to 60 mins by LC-MS analysis; type: ADME, Microsome; details: liver microsomes, time 10-65 min
[14] = Intrinsic clearance in human; type: ADME; details: read-out: CLH

Row | Structure (SMILES) | MIC [1] | MIC [2] | MIC [3] | MIC [4] | MIC [5] | half-life at 1 µM [6] | CLint scaled [7] | half-life at 1 µM [8] | microsomal CLint at 1 µM [9] | microsomal CLint at 1 µM [10] | microsomal CLint at 1 µM [11] | CLint scaled [12] | half-life at 1 µM [13] | CLint scaled [14]
1 | C[C@@H](O)[C@H](NC(=O)c1ccc(C#Cc2ccc(/C=N/N3CCNCC3)cc2)cc1)C(=O)NO | > 64 µg/mL | > 64 µg/mL | > 64 µg/mL | > 64 µg/mL | 4 µg/mL (≈ 8.9 µM) | – | – | – | – | – | – | – | – | –
2 | CCN1CCN(/N=C/c2ccc(C#Cc3ccc(C(=O)N[C@H](C(=O)NO)[C@@H](C)O)cc3)cn2)CC1 | 64 µg/mL (≈ 134 µM) | > 64 µg/mL | 4 µg/mL (≈ 8.36 µM) | 8 µg/mL (≈ 16.7 µM) | 16 µg/mL (≈ 33.4 µM) | – | – | – | – | – | – | – | – | –
3 | C[C@@H](O)[C@H](NC(=O)c1ccc(C#Cc2ccc(/C=N/N3CCN(C(=O)C4CC4)CC3)cc2)cc1)C(=O)NO | 2 µg/mL (≈ 3.86 µM) | 16 µg/mL (≈ 30.9 µM) | 2 µg/mL (≈ 3.86 µM) | 4 µg/mL (≈ 7.73 µM) | 0.03 µg/mL (≈ 0.058 µM) | 4.58 h | 48 mL/min/kg | 2.08 h | 4.73 µL/min/mg | 12.2 µL/min/mg | 5.05 µL/min/mg | 9.09 mL/min/kg | 4.9 h | 4.47 mL/min/kg
4 | C[C@@H](O)[C@H](NC(=O)c1ccc(C#Cc2ccc(/C=N/N3CCN(C)CC3)nc2)cc1)C(=O)NO | 32 µg/mL (≈ 68.9 µM) | – | 8 µg/mL (≈ 17.2 µM) | 8 µg/mL (≈ 17.2 µM) | 8 µg/mL (≈ 17.2 µM) | – | – | – | – | – | – | – | – | –
5 | CC(=O)N1CCN(/N=C/c2ccc(C#Cc3ccc(C(=O)N[C@H](C(=O)NO)[C@@H](C)O)cc3)cc2)CC1 | 2 µg/mL (≈ 4.07 µM) | > 64 µg/mL | > 64 µg/mL | 2 µg/mL (≈ 4.07 µM) | 0.5 µg/mL (≈ 1.02 µM) | – | – | – | – | – | – | – | – | –
6 | CCOC(=O)N1CCN(/N=C/c2ccc(C#Cc3ccc(C(=O)N[C@H](C(=O)NO)[C@@H](C)O)cc3)cc2)CC1 | 4 µg/mL (≈ 7.67 µM) | 16 µg/mL (≈ 30.7 µM) | 8 µg/mL (≈ 15.3 µM) | 8 µg/mL (≈ 15.3 µM) | 0.06 µg/mL (≈ 0.115 µM) | – | – | – | – | – | – | – | – | –
7 | C#CCN1CCN(/N=C/c2ccc(C#Cc3ccc(C(=O)N[C@H](C(=O)NO)[C@@H](C)O)cc3)cc2)CC1 | 2 µg/mL (≈ 4.1 µM) | 32 µg/mL (≈ 65.6 µM) | 2 µg/mL (≈ 4.1 µM) | 8 µg/mL (≈ 16.4 µM) | 0.03 µg/mL (≈ 0.0615 µM) | – | – | – | – | – | – | – | – | –
8 | C[C@@H](O)[C@H](NC(=O)c1ccc(C#Cc2ccc(/C=N/N3CCCCC3)nc2)cc1)C(=O)NO | 8 µg/mL (≈ 17.8 µM) | – | 16 µg/mL (≈ 35.6 µM) | 2 µg/mL (≈ 4.45 µM) | 1 µg/mL (≈ 2.22 µM) | – | – | – | – | – | – | – | – | –
9 | CCC(=O)N1CCN(/N=C/c2ccc(C#Cc3ccc(C(=O)N[C@H](C(=O)NO)[C@@H](C)O)cc3)cn2)CC1 | 32 µg/mL (≈ 63.2 µM) | > 64 µg/mL | 16 µg/mL (≈ 31.6 µM) | 16 µg/mL (≈ 31.6 µM) | 8 µg/mL (≈ 15.8 µM) | – | – | – | – | – | – | – | – | –
10 | C[C@@H](O)[C@H](NC(=O)c1ccc(C#Cc2ccc(/C=N/N3CCN(C(=O)C(C)(C)C)CC3)nc2)cc1)C(=O)NO | 16 µg/mL (≈ 29.9 µM) | > 64 µg/mL | 16 µg/mL (≈ 29.9 µM) | 16 µg/mL (≈ 29.9 µM) | 4 µg/mL (≈ 7.48 µM) | – | – | – | – | – | – | – | – | –
11 | C[C@@H](O)[C@H](NC(=O)c1ccc(C#Cc2ccc(/C=N/N3CCOCC3)nc2)cc1)C(=O)NO | 16 µg/mL (≈ 35.4 µM) | – | 16 µg/mL (≈ 35.4 µM) | 2 µg/mL (≈ 4.43 µM) | 4 µg/mL (≈ 8.86 µM) | – | – | – | – | – | – | – | – | –
12 | CCN1CCN(/N=C/c2ccc(C#Cc3ccc(C(=O)N[C@H](C(=O)NO)[C@@H](C)O)cc3)cc2)CC1 | 4 µg/mL (≈ 8.38 µM) | 16 µg/mL (≈ 33.5 µM) | 4 µg/mL (≈ 8.38 µM) | 2 µg/mL (≈ 4.19 µM) | 0.5 µg/mL (≈ 1.05 µM) | – | – | – | – | – | – | – | – | –
13 | CCC(=O)N1CCN(/N=C/c2ccc(C#Cc3ccc(C(=O)N[C@H](C(=O)NO)[C@@H](C)O)cc3)cc2)CC1 | 2 µg/mL (≈ 3.96 µM) | 16 µg/mL (≈ 31.6 µM) | 4 µg/mL (≈ 7.91 µM) | 4 µg/mL (≈ 7.91 µM) | 0.03 µg/mL (≈ 0.0593 µM) | 3.5 h | 28.5 mL/min/kg | 3.37 h | 4.51 µL/min/mg | 7.23 µL/min/mg | 6.7 µL/min/mg | 12.1 mL/min/kg | 5.15 h | 4.26 mL/min/kg
14 | C[C@@H](O)[C@H](NC(=O)c1ccc(C#Cc2ccc(/C=N/N3CCN(S(C)(=O)=O)CC3)cc2)cc1)C(=O)NO | > 64 µg/mL | > 64 µg/mL | > 64 µg/mL | > 64 µg/mL | 0.5 µg/mL (≈ 0.948 µM) | – | – | – | – | – | – | – | – | –
15 | C[C@@H](O)[C@H](NC(=O)c1ccc(C#Cc2ccc(/C=N/N3CCN(C(=O)OC(C)(C)C)CC3)cc2)cc1)C(=O)NO | 8 µg/mL (≈ 14.6 µM) | > 64 µg/mL | > 64 µg/mL | 16 µg/mL (≈ 29.1 µM) | 1 µg/mL (≈ 1.82 µM) | – | – | – | – | – | – | – | – | –
16 | C[C@@H](O)[C@H](NC(=O)c1ccc(C#Cc2ccc(/C=N/N3CCN(C(=O)N(C)C)CC3)cc2)cc1)C(=O)NO | 2 µg/mL (≈ 3.84 µM) | 16 µg/mL (≈ 30.7 µM) | 8 µg/mL (≈ 15.4 µM) | 4 µg/mL (≈ 7.68 µM) | 0.5 µg/mL (≈ 0.96 µM) | – | – | – | – | – | – | – | – | –
17 | O=C(NO)C1CN(c2ccc(C#Cc3ccc(/C=N/N4CCCC4)cc3)cc2)C(=O)O1 (centres undefined) | > 64 µg/mL | – | – | > 64 µg/mL | > 64 µg/mL | – | – | – | – | – | – | – | – | –
18 | C[C@@H](O)[C@H](NC(=O)c1ccc(C#Cc2ccc(/C=N/N3CCS(=O)(=O)CC3)cc2)cc1)C(=O)NO | 4 µg/mL (≈ 8.02 µM) | 16 µg/mL (≈ 32.1 µM) | 4 µg/mL (≈ 8.02 µM) | 4 µg/mL (≈ 8.02 µM) | 1 µg/mL (≈ 2.01 µM) | – | – | – | – | – | – | – | – | –
19 | C[C@@H](O)[C@H](NC(=O)c1ccc(C#Cc2ccc(/C=N/N3CCN(C4CCCC4)CC3)cc2)cc1)C(=O)NO | 32 µg/mL (≈ 61.8 µM) | > 64 µg/mL | > 64 µg/mL | 32 µg/mL (≈ 61.8 µM) | 2 µg/mL (≈ 3.86 µM) | – | – | – | – | – | – | – | – | –
20 | C[C@@H](O)[C@H](NC(=O)c1ccc(C#Cc2ccc(/C=N/N3CCN(C)CC3)cc2)cc1)C(=O)NO | 2 µg/mL (≈ 4.31 µM) | 8 µg/mL (≈ 17.3 µM) | 2 µg/mL (≈ 4.31 µM) | 2 µg/mL (≈ 4.31 µM) | 1 µg/mL (≈ 2.16 µM) | – | – | – | – | – | – | – | – | –
21 | C[C@@H](O)[C@H](NC(=O)c1ccc(C#Cc2ccc(/C=N/N3CCCCC3)cc2)cc1)C(=O)NO | 1 µg/mL (≈ 2.23 µM) | 32 µg/mL (≈ 71.3 µM) | 32 µg/mL (≈ 71.3 µM) | 4 µg/mL (≈ 8.92 µM) | 0.25 µg/mL (≈ 0.557 µM) | – | – | – | – | – | – | – | – | –
22 | C[C@@H](O)[C@H](NC(=O)c1ccc(C#Cc2ccc(/C=N/N3CCCC3)nc2)cc1)C(=O)NO | > 64 µg/mL | – | > 64 µg/mL | 4 µg/mL (≈ 9.19 µM) | 2 µg/mL (≈ 4.59 µM) | – | – | – | – | – | – | – | – | –
23 | C[C@@H](O)[C@H](NC(=O)c1ccc(C#Cc2ccc(/C=N/N3CCN(C(=O)C(C)(C)C)CC3)cc2)cc1)C(=O)NO | 8 µg/mL (≈ 15 µM) | > 32 µg/mL | > 32 µg/mL | > 32 µg/mL | 0.25 µg/mL (≈ 0.468 µM) | 1.48 h | 36.6 mL/min/kg | 2.53 h | 19.4 µL/min/mg | 9.29 µL/min/mg | 15.6 µL/min/mg | 28.1 mL/min/kg | 1.37 h | 18.4 mL/min/kg
24 | CCOC(=O)N1CCN(/N=C/c2ccc(C#Cc3ccc(C(=O)N[C@H](C(=O)NO)[C@@H](C)O)cc3)cn2)CC1 | 32 µg/mL (≈ 61.2 µM) | > 64 µg/mL | 16 µg/mL (≈ 30.6 µM) | 8 µg/mL (≈ 15.3 µM) | 2 µg/mL (≈ 3.83 µM) | – | – | – | – | – | – | – | – | –
25 | O=C(NO)C1CN(c2ccc(C#Cc3ccc(/C=N/N4CCOCC4)cc3)cc2)C(=O)O1 (centres undefined) | 8 µg/mL (≈ 18.4 µM) | – | – | > 64 µg/mL | 1 µg/mL (≈ 2.3 µM) | – | – | – | – | – | – | – | – | –
